The subject of data set [1] is emulsion-induced hyperlipidemic rats. Briefly: Test 1: antihyperlipidemic activity in emulsion-induced hyperlipidemic rats (serum Chol, HDL-Chol, liver weight). The data set is classed as in vivo, male S.D. rats. Particulars: 3 days, vs control; for change in vivo at 300 mg/kg / inhibition in vivo at 300 mg/kg: Rattus norvegicus, po, 72 h; for change in vivo at 300 mg/kg: read-out: Increase rate of serum HDL-Chol; for inhibition in vivo at 300 mg/kg: read-out: Reduction rate of serum Chol.; for Degree of hepatomegaly (change rate of the liver weight): liver weight per 100 g body weight, 300 mg/kg/day. How it is done: The antihyperlipidemic activity in emulsion-induced hyperlipidemic rats:
Male S.D. rats weighing 80-90 g (4 weeks old) were used. They were divided into groups of 5 to 6 rats each. The test compounds suspended in 0.5% CMC-Na(carboxymethyl cellulose sodium salt) were given to the rats in a daily dose of 4 ml/kg (i.e. 300 mg/kg of the test compounds) via stomach tube every 10:00 a.m. After 30 min., lipids emulsion having the following composition was orally given to the rats in an amount of 2.5 ml per rat.
Cholic acid sodium salt 10.0 g
During the experimental period of 3 days, the rats were fed on a standard commercial diet and water ad libitum. […] The total cholesterol and HDL cholesterol were measured.
The weight of the liver was measured. To the control group, only the aqueous CMC-Na solution and the lipids emulsion were given.
The fractionation of lipoproteins was conducted by a dextran sulfate-MgCl2 precipitation method.
Cholesterol in serum was measured by means of a cholesterol measuring kit (Cholesterol C-Test Wako, manufactured by Wako Junyaku Co., Ltd.), and cholesterol in HDL was measured by means of NC Hi-Set, manufactured by Nippon Chemiphar Co., Ltd.
Further, the reduction rate of Chol was calculated by the following equation. [formula] where A is the amount of serum Chol (mg/dl) of the control group, and B is the amount of serum Chol (mg/dl) of the group to which the therapeutic agent was administered.
Likewise, the increase rate of HDL-Chol was calculated by the following equation. [formula] where C is the amount of serum HDL-Chol (mg/dl) of the control group, and D is the amount of serum HDL-Chol (mg/dl) of the group to which the therapeutic agent was administered.
The degree of hepatomegaly (i.e. the change rate of the liver weight) was calculated by the following equation. [formula] where E is the liver weight (g) per 100 g of the body weight of the control group, and F is the liver weight (g) per 100 g of the body weight of the group to which the therapeutic agent was administered.

The conditions of data set [2]: in words; cited from earlier work.
For another data set, the system named is animals. Particulars: animal experiments; Svoboda and Azarnoff, Cancer Res., 39, 3419 (1979); cited from earlier work.
The subject of a further data set is serum lipid. The settings on record: Science, 193, 903 (1976); J. Lipid Res., 12, 596 (1971); cited from earlier work.
Data set [3] in a line: Test 2: Acute toxicity (mortality after seven days). The format is in vivo. The settings on record: mouse, in vivo, po, 8000 mg/kg p.o., male ddY mice. The protocol: (§1) The test compounds suspended in 0.5% CMC-Na were administered p.o. to male ddY mice. The acute toxicity was determined based on the mortality after seven days. In respect of the compounds of Examples 1, 9, 10 and 11 of the present invention, the mortality was 0% even at a dose of as high as 8000 mg/kg by oral administration.

The next data set relates to male ddY mice. The data set is described as above. The data set is classed as in vivo. The settings on record: 8000 mg/kg p.o., 10080 min. The protocol:
as §1

This is an account of results in patent US4654348A, “Pyrazolo[4,3-d]pyrimidine derivative, process for its production, antihyperlipidemic agent containing it, its intermediate, and process for the production of the intermediate” (Nissan Chemical Industries Ltd., priority 1984, dated 1987).

`CCOC(=O)C(C)(C)Oc1ccc(Cl)cc1` [Clofibrate, reference compound]: in data set [1] (300 mg/kg/day via stomach tube), the change in vivo at 300 mg/kg stood at 12% and the inhibition in vivo at 300 mg/kg is 44%. In addition, the “Degree of hepatomegaly (change rate of the liver weight)” value in data set [1] was “+22%”. Besides, the “subsidiary ill effects reported” value in data set [2] is “myalgia or hepatic insufficiency, and they are likely to lead to gallstone formation”. For the same compound, the hepatic carcinoma result with animals is on record as “brings about hepatic carcinoma on animal experiments”.
Turning to `Nc1ncnc2[nH]ncc12` [1H-pyrazolo[3,4-d]pyrimidine-4-amine], the serum lipid reduction entry in the data set on serum lipid is listed as “function to reduce serum lipid”.
With `CCCCCCCC/C=C\CCCCCCCCOc1c2ncnc(SCC(=O)OCC)c2nn1C` [Example 9, 2-Methyl-3-oleyloxy-7-ethoxycarbonylmethylthio-pyrazolo[4,3-d]pyrimidine], in data set [1] (300 mg/kg/day via stomach tube), the change in vivo at 300 mg/kg worked out at 55% and the inhibition in vivo at 300 mg/kg is 66%. Also, the “Degree of hepatomegaly (change rate of the liver weight)” value in data set [1] is given as “+5%”. Further, the mortality (usually the share of the test organisms that died) at 168 h in data set [3] was 0%.
Turning to `O=C(O)c1cccnc1` [nicotinic acid], in data set [2], the “subsidiary ill effects reported” value is “flashing or gastroenteric troubles”.
As for `CC/C=C\C/C=C\C/C=C\CCCCCCCCOc1c2ncnc(SCC(=O)OCC)c2nn1C` [Example 11, 2-Methyl-3-linolenyloxy-7-ethoxycarbonylmethylthio-pyrazolo[4,3-d]pyrimidine], in data set [1] (300 mg/kg/day via stomach tube), the “Increase rate of serum HDL-Chol” value is 26% and the “Reduction rate of serum Chol.” value is given as 83%. In data set [1], the “Degree of hepatomegaly (change rate of the liver weight)” value was “+20%”. The compound also returned a mortality in the data set with male ddY mice of 0%.
Consider `CCCCCCCCCCCCCCCCOc1c2ncnc(SCC(=O)OCC)c2nn1C` [Example 1, 2-Methyl-3-n-hexadecyloxy-7-ethoxycarbonylmethylthio-pyrazolo[4,3-d]pyrimidine], for which, in data set [1] (300 mg/kg/day via stomach tube), the change in vivo at 300 mg/kg is 42% and the inhibition in vivo at 300 mg/kg is 58%. Besides, in data set [1], the “Degree of hepatomegaly (change rate of the liver weight)” value is “+8%”. This compound returned a mortality at 168 h in data set [3] of 0%.
